We go through one compound from PMC10410761 (Proceedings of the National Academy of Sciences of the …, 2023).

Test [1] deals with NaV1.7 (Rattus norvegicus, UniProt O08562). Kind of test: Whole-cell voltage clamp, sodium currents in rat DRG neurons. Format: cell-based. Conditions: Pitstop2 20 µM, vs AAV-SCR control.
In test [2] the test system is NaV1.7. Described as above. Format: cell-based. The conditions noted are these: Pitstop2 20 µM, 30 min before recording, rat DRG neurons.

Chain of NaV1.7 (Rattus norvegicus, UniProt O08562) (O08562 whole entry): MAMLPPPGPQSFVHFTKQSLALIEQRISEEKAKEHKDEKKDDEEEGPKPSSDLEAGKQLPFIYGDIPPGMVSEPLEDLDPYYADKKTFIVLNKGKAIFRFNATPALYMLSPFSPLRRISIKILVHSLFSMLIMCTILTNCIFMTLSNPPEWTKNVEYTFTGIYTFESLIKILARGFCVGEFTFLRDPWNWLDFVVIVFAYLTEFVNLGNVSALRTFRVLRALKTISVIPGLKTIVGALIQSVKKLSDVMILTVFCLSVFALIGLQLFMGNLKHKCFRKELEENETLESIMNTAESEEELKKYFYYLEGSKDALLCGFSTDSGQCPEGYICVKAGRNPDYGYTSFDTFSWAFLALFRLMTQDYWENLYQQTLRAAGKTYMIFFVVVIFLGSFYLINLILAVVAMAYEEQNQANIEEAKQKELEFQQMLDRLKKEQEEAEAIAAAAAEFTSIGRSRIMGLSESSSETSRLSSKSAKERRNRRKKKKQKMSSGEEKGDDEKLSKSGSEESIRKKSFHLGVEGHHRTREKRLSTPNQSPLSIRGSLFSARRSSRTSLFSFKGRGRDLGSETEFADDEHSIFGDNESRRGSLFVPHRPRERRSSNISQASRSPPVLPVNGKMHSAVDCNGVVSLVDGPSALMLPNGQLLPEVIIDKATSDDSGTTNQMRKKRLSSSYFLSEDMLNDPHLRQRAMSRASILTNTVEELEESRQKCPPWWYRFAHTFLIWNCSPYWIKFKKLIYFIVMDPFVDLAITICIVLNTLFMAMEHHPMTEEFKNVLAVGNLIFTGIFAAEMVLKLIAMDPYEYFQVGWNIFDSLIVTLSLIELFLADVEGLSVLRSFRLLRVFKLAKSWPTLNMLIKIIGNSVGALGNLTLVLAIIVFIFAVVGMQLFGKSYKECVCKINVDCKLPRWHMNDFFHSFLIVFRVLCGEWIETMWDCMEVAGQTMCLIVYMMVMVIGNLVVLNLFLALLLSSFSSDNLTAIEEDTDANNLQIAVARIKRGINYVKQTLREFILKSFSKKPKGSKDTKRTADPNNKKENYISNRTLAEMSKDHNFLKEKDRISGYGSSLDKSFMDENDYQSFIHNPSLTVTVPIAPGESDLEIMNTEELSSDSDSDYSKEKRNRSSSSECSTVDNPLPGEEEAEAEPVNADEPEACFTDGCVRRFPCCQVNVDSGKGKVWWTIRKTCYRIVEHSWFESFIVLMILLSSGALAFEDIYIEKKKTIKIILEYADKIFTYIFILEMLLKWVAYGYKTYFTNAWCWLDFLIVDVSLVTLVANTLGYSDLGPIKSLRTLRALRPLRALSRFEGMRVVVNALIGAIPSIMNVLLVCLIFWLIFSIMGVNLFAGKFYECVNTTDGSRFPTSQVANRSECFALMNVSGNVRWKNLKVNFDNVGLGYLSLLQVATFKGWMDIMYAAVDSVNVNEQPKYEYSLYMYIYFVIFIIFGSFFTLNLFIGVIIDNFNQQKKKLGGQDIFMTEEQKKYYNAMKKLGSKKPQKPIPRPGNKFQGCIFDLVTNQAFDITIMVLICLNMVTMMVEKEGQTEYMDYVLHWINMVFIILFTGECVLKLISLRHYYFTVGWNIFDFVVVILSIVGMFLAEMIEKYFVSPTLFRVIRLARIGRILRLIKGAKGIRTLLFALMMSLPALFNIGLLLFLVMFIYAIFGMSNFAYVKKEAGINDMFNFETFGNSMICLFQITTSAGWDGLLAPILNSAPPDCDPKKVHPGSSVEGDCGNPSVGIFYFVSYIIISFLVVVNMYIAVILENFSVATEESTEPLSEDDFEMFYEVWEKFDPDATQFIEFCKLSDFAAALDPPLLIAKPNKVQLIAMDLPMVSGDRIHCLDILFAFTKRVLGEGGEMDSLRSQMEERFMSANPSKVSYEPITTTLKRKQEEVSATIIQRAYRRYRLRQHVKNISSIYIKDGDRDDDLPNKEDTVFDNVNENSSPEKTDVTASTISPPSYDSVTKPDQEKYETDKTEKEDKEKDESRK

Regarding `O=C1NC(=NS(=O)(=O)c2cccc3ccccc23)S/C1=C\c1ccc(Br)cc1` [Pitstop2], the “Inhibition of NaV1.7 current in AAV-NaV1.7-CRS transfected DRG neurons” value in test [1] is “rescued”. For the same compound, in test [2], the “Decrease of sodium currents imposed by Myr-TAT-NaV1.7-CRS” value is reported as “rescued”.
